Reference: the supplement of paper PMC10307832

Tests used:
Experiment in all cases: relative viability (nuclei count vs DMSO), 5 days (fraction); higher = more cells survive
LXF-289 = system: LXF-289
Outline: (§1)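 Five library-drug doses in √10 steps were combined with a fixed anchor-drug dose, or a single drug was given alone, by pin tool to lung cancer cell lines in 1536-well plates the day after seeding. Nuclei were stained and counted after 5 days. Relative viability is the nuclei count in treated wells over that in vehicle wells, taken as the median of duplicate plates.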

NCI-H647 = system: NCI-H647
Outline: as §1

NCI-H3122 = system: NCI-H3122
Outline: as §1

NCI-H2228 = system: NCI-H2228
Outline: as §1

NCI-H1395 = system: NCI-H1395
Outline: as §1

NCI-H727 = system: NCI-H727
Outline: as §1

201T = system: 201T
Outline: as §1

NCI-H1437 = system: NCI-H1437
Outline: as §1

NCI-H1944 = system: NCI-H1944
Outline: as §1

HCC-827 = system: HCC-827
Outline: as §1

NCI-H1792 = system: NCI-H1792
Outline: as §1

NCI-H2405 = system: NCI-H2405
Outline: as §1

NCI-H322M = system: NCI-H322M
Outline: as §1

CAL-12T = system: CAL-12T
Outline: as §1

RERF-LC-KJ = system: RERF-LC-KJ
Outline: as §1

NCI-H1793 = system: NCI-H1793
Outline: as §1

LCLC-97TM1 = system: LCLC-97TM1
Outline: as §1

BEN = system: BEN
Outline: as §1

LCLC-103H = system: LCLC-103H
Outline: as §1

SK-LU-1 = system: SK-LU-1
Outline: as §1

NCI-H2087 = system: NCI-H2087
Outline: as §1

Nc1ccn([C@@H]2O[C@H](CO)[C@@H](O)[C@@H]2O)c(=O)n1 [Cytarabine] + Cc1nc(NC(=O)N2CCC[C@H]2C(N)=O)sc1-c1ccnc(C(C)(C)C(F)(F)F)c1 [Alpelisib] (partner 2 µM)
relative viability (LXF-289; first compound 0.005 µM): 1.02 | relative viability (LXF-289; first compound 0.01581 µM): 1.05 | relative viability (LXF-289; first compound 0.05 µM): 0.764 | relative viability (LXF-289; first compound 0.1581 µM): 0.356 | relative viability (LXF-289; first compound 0.5 µM): 0.268 | relative viability (NCI-H647; first compound 0.005 µM): 0.491 | relative viability (NCI-H647; first compound 0.01581 µM): 0.356 | relative viability (NCI-H647; first compound 0.05 µM): 0.142 | relative viability (NCI-H647; first compound 0.1581 µM): 0.086 | relative viability (NCI-H647; first compound 0.5 µM): 0.0694 | relative viability (NCI-H3122; first compound 0.005 µM): 0.673 | relative viability (NCI-H3122; first compound 0.01581 µM): 0.699 | relative viability (NCI-H3122; first compound 0.05 µM): 0.772 | relative viability (NCI-H3122; first compound 0.1581 µM): 0.464 | relative viability (NCI-H3122; first compound 0.5 µM): 0.424 | relative viability (NCI-H2228; first compound 0.005 µM): 0.403 | relative viability (NCI-H2228; first compound 0.01581 µM): 0.201 | relative viability (NCI-H2228; first compound 0.05 µM): 0.251 | relative viability (NCI-H2228; first compound 0.1581 µM): 0.207 | relative viability (NCI-H2228; first compound 0.5 µM): 0.164 | relative viability (NCI-H1395; first compound 0.005 µM): 1.04 | relative viability (NCI-H1395; first compound 0.01581 µM): 0.858 | relative viability (NCI-H1395; first compound 0.05 µM): 0.583 | relative viability (NCI-H1395; first compound 0.1581 µM): 0.423 | relative viability (NCI-H1395; first compound 0.5 µM): 0.441 | relative viability (NCI-H727; first compound 0.005 µM): 0.461 | relative viability (NCI-H727; first compound 0.01581 µM): 0.505 | relative viability (NCI-H727; first compound 0.05 µM): 0.388 | relative viability (NCI-H727; first compound 0.1581 µM): 0.258 | relative viability (NCI-H727; first compound 0.5 µM): 0.159 | relative viability (201T; first compound 0.005 µM): 0.999 | relative viability (201T; first compound 0.01581 µM): 0.983 | relative viability (201T; first compound 0.05 µM): 1.02 | relative viability (201T; first compound 0.1581 µM): 0.887 | relative viability (201T; first compound 0.5 µM): 0.872 | relative viability (NCI-H1437; first compound 0.005 µM): 0.666 | relative viability (NCI-H1437; first compound 0.01581 µM): 0.631 | relative viability (NCI-H1437; first compound 0.05 µM): 0.43 | relative viability (NCI-H1437; first compound 0.1581 µM): 0.237 | relative viability (NCI-H1437; first compound 0.5 µM): 0.151 | relative viability (NCI-H1944; first compound 0.005 µM): 0.563 | relative viability (NCI-H1944; first compound 0.01581 µM): 0.361 | relative viability (NCI-H1944; first compound 0.05 µM): 0.364 | relative viability (NCI-H1944; first compound 0.1581 µM): 0.183 | relative viability (NCI-H1944; first compound 0.5 µM): 0.144 | relative viability (HCC-827; first compound 0.005 µM): 0.697 | relative viability (HCC-827; first compound 0.01581 µM): 0.448 | relative viability (HCC-827; first compound 0.05 µM): 0.467 | relative viability (HCC-827; first compound 0.1581 µM): 0.242 | relative viability (HCC-827; first compound 0.5 µM): 0.197 | relative viability (NCI-H1792; first compound 0.005 µM): 0.553 | relative viability (NCI-H1792; first compound 0.01581 µM): 0.644 | relative viability (NCI-H1792; first compound 0.05 µM): 0.659 | relative viability (NCI-H1792; first compound 0.1581 µM): 0.387 | relative viability (NCI-H1792; first compound 0.5 µM): 0.343 | relative viability (NCI-H2405; first compound 0.005 µM): 0.771 | relative viability (NCI-H2405; first compound 0.01581 µM): 0.657 | relative viability (NCI-H2405; first compound 0.05 µM): 0.512 | relative viability (NCI-H2405; first compound 0.1581 µM): 0.527 | relative viability (NCI-H2405; first compound 0.5 µM): 0.301 | relative viability (NCI-H322M; first compound 0.005 µM): 0.68 | relative viability (NCI-H322M; first compound 0.01581 µM): 0.607 | relative viability (NCI-H322M; first compound 0.05 µM): 0.529 | relative viability (NCI-H322M; first compound 0.1581 µM): 0.283 | relative viability (NCI-H322M; first compound 0.5 µM): 0.291 | relative viability (CAL-12T; first compound 0.005 µM): 1.25 | relative viability (CAL-12T; first compound 0.01581 µM): 1.44 | relative viability (CAL-12T; first compound 0.05 µM): 1.1 | relative viability (CAL-12T; first compound 0.1581 µM): 0.514 | relative viability (CAL-12T; first compound 0.5 µM): 0.201 | relative viability (RERF-LC-KJ; first compound 0.005 µM): 0.742 | relative viability (RERF-LC-KJ; first compound 0.01581 µM): 0.657 | relative viability (RERF-LC-KJ; first compound 0.05 µM): 0.864 | relative viability (RERF-LC-KJ; first compound 0.1581 µM): 0.499 | relative viability (RERF-LC-KJ; first compound 0.5 µM): 0.36 | relative viability (NCI-H1793; first compound 0.005 µM): 0.573 | relative viability (NCI-H1793; first compound 0.01581 µM): 0.687 | relative viability (NCI-H1793; first compound 0.05 µM): 0.691 | relative viability (NCI-H1793; first compound 0.1581 µM): 0.389 | relative viability (NCI-H1793; first compound 0.5 µM): 0.251 | relative viability (LCLC-97TM1; first compound 0.005 µM): 0.235 | relative viability (LCLC-97TM1; first compound 0.01581 µM): 0.124 | relative viability (LCLC-97TM1; first compound 0.1581 µM): 0.101 | relative viability (LCLC-97TM1; first compound 0.5 µM): 0.0953 | relative viability (BEN; first compound 0.005 µM): 0.832 | relative viability (BEN; first compound 0.01581 µM): 0.821 | relative viability (BEN; first compound 0.05 µM): 0.634 | relative viability (BEN; first compound 0.1581 µM): 0.418 | relative viability (BEN; first compound 0.5 µM): 0.353 | relative viability (LCLC-103H; first compound 0.005 µM): 0.988 | relative viability (LCLC-103H; first compound 0.01581 µM): 0.906 | relative viability (LCLC-103H; first compound 0.05 µM): 1.02 | relative viability (LCLC-103H; first compound 0.1581 µM): 0.967 | relative viability (LCLC-103H; first compound 0.5 µM): 0.809 | relative viability (SK-LU-1; first compound 0.005 µM): 0.805 | relative viability (SK-LU-1; first compound 0.01581 µM): 0.826 | relative viability (SK-LU-1; first compound 0.05 µM): 0.62 | relative viability (SK-LU-1; first compound 0.1581 µM): 0.347 | relative viability (SK-LU-1; first compound 0.5 µM): 0.303 | relative viability (NCI-H2087; first compound 0.005 µM): 0.962 | relative viability (NCI-H2087; first compound 0.01581 µM): 1.1 | relative viability (NCI-H2087; first compound 0.05 µM): 0.899 | relative viability (NCI-H2087; first compound 0.1581 µM): 0.666 | relative viability (NCI-H2087; first compound 0.5 µM): 0.452
